According to ChEMBL document CHEMBL6121006, “Marine natural product-inspired discovery of novel BRD4 inhibitors with anti-inflammatory activity” (Eur J Med Chem, 2025):
The source made the active and inactive calls. The calls are words filed in the database; no cut-off is given here.

Tests used:
RAW264.7 [1] = assay: Cytotoxicity against mouse RAW264.7 cells at 20 uM measured after 24 hrs by CCK8 method; format: functional, cell-based
Mus musculus [2] = assay: Antiinflammatory activity against C57BL/6 mouse acute inflammation model assessed as reduction in LPS induced lung pulmonary hemorrhage at 50 to 100 mg/kg, po pre-administered for 2 hrs followed by LPS stimulation for 6 hrs; format: functional, organism-based; conditions: dose 50-100 mg/kg, time 8.0 hrs
[3] = biological target: T1, Bromodomain-containing protein 4 (Homo sapiens, UniProt O60885); assay: Inhibition of human recombinant BRD4 BD2 (349 to 460 residues) extracted from Escherichia coli BL21 (DE3) at 10 uM incubated for 2 hrs by TR-FRET assay relative to control
THP-1 [4] = assay: Anti-inflammatory activity in human THP-1 cells assessed as inhibition of LPS-induced IL-6 level preincubated with compound for 2 hrs followed by LPS stimulation and measured after 22 hrs by ELISA method; format: functional, cell-based; conditions: dose 2.5-20 µM, time 24.0 hrs
THP-1 [5] = assay: Anti-inflammatory activity in human THP-1 cells assessed as inhibition of LPS-induced TNF-alpha expression preincubated with compound for 2 hrs followed by LPS stimulation and measured after 6 hrs by RT-qPCR analysis; format: functional, cell-based; conditions: dose 2.5-20 µM, time 8.0 hrs
[6] = Toxicity in C57BL/6 mouse effect on body weight at 100 mg/kg, po measured after 24 hrs; format: organism-based; conditions: in vivo
[7] = biological target: Bromodomain-containing protein 2 (Homo sapiens) (UniProt P25440); assay: Inhibition of BRD2 BD2 (unknown origin) at 1 uM incubated for 2 hrs by TR-FRET assay relative to control
Mus musculus [8] = assay: Antiinflammatory activity against LPS-induced C57BL/6 mouse acute inflammation model assessed as rescue of damaged glomerular cells in kidney at 50 to 100 mg/kg, po pre-administered for 2 hrs followed by LPS stimulation for 6 hrs; format: functional, organism-based; conditions: dose 50-100 mg/kg, time 8.0 hrs
[9] = Toxicity in C57BL/6 mouse effect on kidney at 100 mg/kg, po measured after 24 hrs; format: organism-based; conditions: in vivo
[10] = biological target: Bromodomain testis-specific protein (Homo sapiens) (UniProt Q58F21); assay: Inhibition of BRDT BD2 (unknown origin) at 1 uM incubated for 2 hrs by TR-FRET assay relative to control
Mus musculus [11] = assay: Antiinflammatory activity against LPS-induced C57BL/6 mouse acute inflammation model assessed as decrease in infiltration of renal interstitial inflammatory cells at 100 mg/kg, po pre-administered for 2 hrs followed by LPS stimulation for 6 hrs; format: functional, organism-based; conditions: time 8.0 hrs
THP-1 [12] = assay: Cytotoxicity against human THP-1 cells at 20 uM measured after 24 hrs by CCK8 method; format: functional, cell-based
[13] = Toxicity in C57BL/6 mouse effect on heart at 100 mg/kg, po measured after 24 hrs; format: organism-based; conditions: in vivo
Mus musculus [14] = assay: Antiinflammatory activity against LPS-induced C57BL/6 mouse acute inflammation model assessed as rescue of damaged renal tubule cells in kidney at 50 to 100 mg/kg, po pre-administered for 2 hrs followed by LPS stimulation for 6 hrs; format: functional, organism-based; conditions: dose 50-100 mg/kg, time 8.0 hrs
[15] = biological target: Bromodomain-containing protein 2 (Homo sapiens) (UniProt P25440); assay: Inhibition of BRD2 BD1 (unknown origin) at 1 uM incubated for 2 hrs by TR-FRET assay relative to control
THP-1 [16] = assay: Anti-inflammatory activity in human THP-1 cells assessed as inhibition of LPS-induced IL-6 expression preincubated with compound for 2 hrs followed by LPS stimulation and measured after 6 hrs by RT-qPCR analysis; format: functional, cell-based; conditions: dose 2.5-20 µM, time 8.0 hrs
[17] = biological target: T1, Bromodomain-containing protein 4; assay: Inhibition of human recombinant BRD4 BD1 (42 to 167 residues) extracted from Escherichia coli BL21 (DE3) at 10 uM incubated for 2 hrs by TR-FRET assay relative to control
[18] = Toxicity in C57BL/6 mouse effect on intestine at 100 mg/kg, po measured after 24 hrs; format: organism-based; conditions: in vivo
THP-1 [19] = assay: Anti-inflammatory activity in human THP-1 cells assessed as inhibition of LPS-induced TNF-alpha level preincubated with compound for 2 hrs followed by LPS stimulation and measured after 22 hrs by ELISA method; format: functional, cell-based; conditions: dose 2.5-20 µM, time 24.0 hrs
RAW264.7 [20] = assay: Anti-inflammatory activity in mouse RAW264.7 cells assessed as inhibition of LPS-induced NO production at 10 uM preincubated with compound for 24 hrs followed by LPS stimulation by Griess reagent based analysis relative to control; format: functional; set-up: scale not given: the % may be the effect or the level left
Mus musculus [21] = assay: Antiinflammatory activity against LPS-induced C57BL/6 mouse acute inflammation model assessed as rescue of increased inflammatory cell infiltration in kidney at 50 to 100 mg/kg, po pre-administered for 2 hrs followed by LPS stimulation for 6 hrs; format: functional, organism-based; conditions: dose 50-100 mg/kg, time 8.0 hrs
Mus musculus [22] = assay: Antiinflammatory activity against LPS-induced C57BL/6 mouse acute inflammation model assessed as decrease in number of interstitial vacuoles at 100 mg/kg, po pre-administered for 2 hrs followed by LPS stimulation for 6 hrs; format: functional, organism-based; conditions: time 8.0 hrs
[23] = biological target: Bromodomain-containing protein 3 (Homo sapiens) (UniProt Q15059); assay: Inhibition of BRD3 BD2 (unknown origin) at 1 uM incubated for 2 hrs by TR-FRET assay relative to control
Mus musculus [24] = assay: Antiinflammatory activity against LPS-induced C57BL/6 mouse acute inflammation model assessed as increase in proportion of normal renal tubules at 100 mg/kg, po pre-administered for 2 hrs followed by LPS stimulation for 6 hrs; format: functional, organism-based; conditions: time 8.0 hrs
[25] = biological target: T1, Bromodomain-containing protein 4; assay: Inhibition of human recombinant BRD4 BD1 (42 to 167 residues) extracted from Escherichia coli BL21 (DE3) incubated for 2 hrs by TR-FRET assay
[26] = Toxicity in C57BL/6 mouse effect on spleen at 100 mg/kg, po measured after 24 hrs; format: organism-based; conditions: in vivo
Mus musculus [27] = assay: Antiinflammatory activity against LPS-induced C57BL/6 mouse acute inflammation model assessed as improvement of distorted hepatic lobular structure in liver at 50 to 100 mg/kg, po pre-administered for 2 hrs followed by LPS stimulation for 6 hrs; format: functional, organism-based; conditions: dose 50-100 mg/kg, time 8.0 hrs
Mus musculus [28] = assay: Antiinflammatory activity against LPS-induced C57BL/6 mouse acute inflammation model assessed as improvement of hepatic necrosis in liver at 50 to 100 mg/kg, po pre-administered for 2 hrs followed by LPS stimulation for 6 hrs; format: functional, organism-based; conditions: dose 50-100 mg/kg, time 8.0 hrs

Sequence of Bromodomain-containing protein 2 (Homo sapiens) (P25440 whole entry, looked up): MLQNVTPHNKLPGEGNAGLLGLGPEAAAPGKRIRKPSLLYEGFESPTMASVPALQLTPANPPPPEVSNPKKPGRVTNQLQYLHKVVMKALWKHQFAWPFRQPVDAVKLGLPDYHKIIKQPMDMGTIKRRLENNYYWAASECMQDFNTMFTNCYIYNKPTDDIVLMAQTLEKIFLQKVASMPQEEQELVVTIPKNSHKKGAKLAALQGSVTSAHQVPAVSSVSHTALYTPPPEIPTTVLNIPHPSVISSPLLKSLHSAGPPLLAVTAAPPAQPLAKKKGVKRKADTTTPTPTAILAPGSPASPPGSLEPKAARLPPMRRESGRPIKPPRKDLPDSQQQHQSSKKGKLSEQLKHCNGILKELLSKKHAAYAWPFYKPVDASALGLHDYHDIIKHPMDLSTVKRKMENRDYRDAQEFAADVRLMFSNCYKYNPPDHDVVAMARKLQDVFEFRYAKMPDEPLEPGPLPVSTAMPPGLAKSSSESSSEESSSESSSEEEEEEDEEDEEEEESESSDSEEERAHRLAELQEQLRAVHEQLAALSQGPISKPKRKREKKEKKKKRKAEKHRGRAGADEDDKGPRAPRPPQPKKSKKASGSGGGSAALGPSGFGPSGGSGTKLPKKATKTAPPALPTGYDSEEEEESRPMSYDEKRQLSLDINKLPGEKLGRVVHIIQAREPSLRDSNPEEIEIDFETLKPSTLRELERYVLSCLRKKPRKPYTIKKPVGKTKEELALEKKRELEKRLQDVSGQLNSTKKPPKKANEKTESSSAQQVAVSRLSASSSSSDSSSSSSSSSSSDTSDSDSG
Sequence of Bromodomain-containing protein 3 (Homo sapiens) (Q15059 2-726 limits assumed): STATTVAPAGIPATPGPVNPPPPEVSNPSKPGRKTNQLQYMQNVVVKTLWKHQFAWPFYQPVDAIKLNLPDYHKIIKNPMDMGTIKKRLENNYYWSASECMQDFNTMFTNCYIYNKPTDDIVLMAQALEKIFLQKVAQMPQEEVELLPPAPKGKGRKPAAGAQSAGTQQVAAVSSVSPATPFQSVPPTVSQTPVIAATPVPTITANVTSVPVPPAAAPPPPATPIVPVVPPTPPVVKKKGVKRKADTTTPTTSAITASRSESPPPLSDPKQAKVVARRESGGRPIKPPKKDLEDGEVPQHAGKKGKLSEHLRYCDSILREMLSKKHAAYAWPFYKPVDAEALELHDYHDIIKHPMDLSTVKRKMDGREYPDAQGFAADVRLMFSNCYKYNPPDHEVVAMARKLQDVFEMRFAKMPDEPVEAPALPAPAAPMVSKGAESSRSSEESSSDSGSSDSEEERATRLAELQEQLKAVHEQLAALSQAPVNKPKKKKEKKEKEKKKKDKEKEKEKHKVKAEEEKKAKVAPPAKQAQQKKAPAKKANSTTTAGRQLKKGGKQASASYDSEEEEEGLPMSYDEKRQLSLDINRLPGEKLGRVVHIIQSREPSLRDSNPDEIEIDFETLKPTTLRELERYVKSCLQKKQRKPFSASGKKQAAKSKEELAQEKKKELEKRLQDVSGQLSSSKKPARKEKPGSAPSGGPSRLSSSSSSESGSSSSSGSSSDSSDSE

Question: Which results are given for COc1ccc(/C=C/c2nc3cc(OC)cc(OC)c3c(=O)[nH]2)cc1?
Answer: Activity (RAW264.7 [1]): inactive; Activity (Mus musculus [2]): Active; inhibition [3]: 89%; Activity (THP-1 [4]): Dose-dependent-effect; Activity (THP-1 [5]): Dose-dependent-effect; Activity [6]: Non-toxic; inhibition [7]: 30%; Activity (Mus musculus [8]): Active; Activity [9]: Non-toxic; inhibition [10]: 7%; Activity (Mus musculus [11]): Active; Activity (THP-1 [12]): inactive; Activity [13]: Non-toxic; Activity (Mus musculus [14]): Active; inhibition [15]: 24%; Activity (THP-1 [16]): Dose-dependent-effect; inhibition [17]: 81%; Activity [18]: Non-toxic; Activity (THP-1 [19]): Dose-dependent-effect; Activity (RAW264.7 [20]): 106%; Activity (Mus musculus [21]): Active; Activity (Mus musculus [22]): Active; inhibition [23]: 44%; Activity (Mus musculus [24]): Active; IC50 [25]: 3.81 µM; Activity [26]: Non-toxic; Activity (Mus musculus [27]): Active; Activity (Mus musculus [28]): Active
